Test results reported in patent US9096554B2, “Drugs for inhibiting p38 and uses thereof” (UNIVERSIDAD AUTÓNOMA DE MADRID, priority 2011, dated 2015).
“Also recorded” adds a separate entry of the source.

Key:
[1] = system: TNF-α secretion in response to bacterial LPS in human monocytes (THP-1); test: TNF-α secretion in response to LPS in THP-1 monocytes (ELISA); format: cell-based; conditions: for IC50: Homo sapiens, THP-1, LPS; for activity in TNF-α secretion inhibition compared with comparative Compounds 10-14: FIG. 8
Protocol: (§1) This assay was performed to analyze the effect of the compounds of the invention on tumor necrosis factor alpha (TNF-α) secretion in response to bacterial lipopolysaccharide (LPS) in human monocytes (THP-1) and on the survival of said THP-1 monocytes in the presence of said compounds.
(§2) Briefly, cells from human monocytic cell line THP-1 (ATCC) at a density of about 10^6 cells/ml were stimulated with bacterial LPS (Sigma, Ref.# L2654) at a concentration of 1 mg/ml for 4 hours in the presence of the compounds of the invention dissolved in dimethyl sulfoxide (DMSO) at different concentrations (0.001, 0.01, 0.1, 1, 10 and 100 μM). The amount of TNF-α secreted into the medium in response to LPS was quantified by means of an ELISA assay (BioTrak, Ref.# RPN2758, GE-Amersham) following the manufacturer's instructions. Cell viability was quantified by means of flow cytometry FACS (FACScalibur, Becton Dickinson) after staining the treated cells with propidium iodide (1 mg/l) and quantifying the amount of positive cells for this stain (Software Cell Quest Pro).
These assays were performed to compare the effect of the compounds of the invention (compounds 1, 2 and 3) on tumor necrosis factor alpha (TNF-α) secretion in response to bacterial lipopolysaccharide (LPS) in human monocytes (THP-1) with respect to compounds that are structurally related but have a different substitution pattern in the phenyl ring. Conditions similar to those described in Example 7 were used.

THP-1 monocytes = test: THP-1 monocyte survival (propidium iodide, FACS); format: cell-based, human; conditions: dose causing the death of 50% of the cells; THP-1, propidium iodide FACS
Protocol: as §1, §2

p38 MAPK [2] = biological target: p38 MAPK (Homo sapiens, UniProt Q16539); test: Inhibition of MEF2A phosphorylation by p38 MAPK in vitro; format: biochemical; conditions: MEF2A (10 nM) phosphorylation by active recombinant p38 (1 nM), 5 minutes
Protocol: This assay was performed to quantify the effect of the compounds of the invention on MEF2-A phosphorylation by p38 MAPK in vitro.
To that end, briefly, active recombinant p38 (1 nM) and MEF2A (10 nM) were incubated with different concentrations of Compound 1 in a kinase buffer for 5 minutes. The proteins were resolved using SDS-PAGE and the activity of p38 was measured as phosphorylated MEF2A using anti-P-MEF2A (T312), a specific antibody. The mean of the results is graphically depicted as a percentage with respect to the controls (DMSO) of two independent experiments conducted in duplicate. For comparative purposes, Compound 5 at a concentration of 10 μM was used.
Finally, the in vitro mean inhibitory concentration (IC50) of this reaction for each assayed compound was determined as the measurement of the efficacy of a compound for inhibiting this biochemical function using a sufficient range of concentrations of each of these compounds (data not shown).

LysM-GRK2^f/+ mice = test: Carrageenan-induced hyperalgesia in LysM-GRK2f/+ mice, intrathecal injection; format: in vivo; conditions: for hyperalgesia (paw withdrawal latency to heat): 7 days after carrageenan
From the text: To perform this assay, a previously described protocol was followed [Willemen H L, et al., Microglial/macrophage GRK2 determines duration of peripheral IL-1beta-induced hyperalgesia: contribution of spinal cord CX3CR1, p38 and IL-1 signaling. Pain. 2010 September; 150(3):550-60; and Eijkelkamp N, et al., (http://www.ncbi.nlm.nih.gov/pubmed/20147541; J. Neurosci. 2010 Feb. 10; 30(6):2138-49). Briefly, eight female LysM-GRK2^f/+ mice (2 mice per group, 4 paws for each condition) were subjected to an intraplantar injection of carrageenan (Sigma-Aldrich, […] of a 1% solution in saline) for inducing inflammatory-type hyperalgesia in the extremities. Seven (7) days after injecting carrageenan, the paw withdrawal latency time when the paw is in contact with heat was determined as an indication of inflammatory-type pain at time 0 (T=0). The carrier (20% DMSO) or Compound 1 at different concentrations (0.15, 0.5 and 1.5 μg in 5 μL of 20% DMSO) was then intrathecally injected.
The paw withdrawal latency periods were then measured at different times (0.5, 1, 2, 4, 6, 8, 10, 24, 48 and 96 hours after injecting the compound).
To evaluate the effect of Compound 5 on hyperalgesia induced in mice, a protocol similar to that described for Compound 1 in Example 9A was followed, but in this protocol, the known p38 MAPK inhibitor SB239063 (5 μg in 5 μL of 20% DMSO), the carrier (20% DMSO), or Compound 5 (4 μg in 5 μL of 20% DMSO) was intrathecally injected 7 days after injecting the carrageenan.

[3] = system: wild-type mice of strain C54BL/6; test: Hyperalgesia induced by high doses of carrageenan in wild-type mice, intrathecal injection; format: in vivo; conditions: for analgesic effect: FIG. 11A
Protocol: The administration of high doses of carrageenan is known to induce hyperalgesia and prolonged inflammation in wild-type mice. Briefly, 16 female wild-type mice of strain C54BL/6 (4 mice per group, 8 paws for each condition) were subjected to intraplantar injection of carrageenan (Sigma-Aldrich, 20 μL of a 2% solution % in saline) for inducing inflammatory-type hyperalgesia in the extremities. Six (6) days after injecting carrageenan, the paw withdrawal latency time when the paw is in contact with heat was determined as an indication of inflammatory-type pain at time 0 (T=0). The known p38 MAPK inhibitor SB239063 [trans-4-[4-(4-fluorophenyl)-5-(2-methoxy-4-pyrimidinyl)-1H-imidazol-1-yl]cyclohexanol] (5 μg in 5 μL of 20% DMSO), the carrier (20% DMSO), or Compound 1 at different concentrations (0.5, 1.0 and 1.5 μg in 5 μL of 20% DMSO) was then intrathecally injected.

TNF-α = TNF-α levels in the spinal cord after intrathecal treatment (ELISA); format: in vivo, mice; conditions: FIG. 11D
Protocol: To find out if TNF-α levels are repressed in vivo after treatment with Compound 1, the spinal cord was isolated two days after intrathecal treatment with said compound and TNF-α levels were analyzed with ELISA.

p38 MAPK [4] = test: Activation of p38 MAPK in response to LPS and its activity (P-MK2, P-Hsp27) in THP-1 cells, Western Blot; format: cell-based, human; conditions: THP-1, LPS, 1 and 5 μM, FIG. 2B
Protocol: This assay was performed to analyze the effect of Compound 1 on the activation of p38 MAPK and on its activity in a human monocytic cell line (THP-1) (American Type Culture Collection: http://www.atcc.org/) treated with different concentrations of said compound.
Briefly, human monocytic cells from said THP-1 cell line at a density of about 10^6 cells/ml were stimulated with bacterial LPS (Sigma #L2654) at a concentration of between 1 and 10 mg/ml (which may vary depending on the batch) for 1 hour in the absence or presence of Compound 1 at different concentrations (1 μM and 5 μM) dissolved in dimethyl sulfoxide (DMSO). DMSO was used as a control. The cells were lysed in a 100 mM pH 7.5 Tris/HCl buffer, 200 mM EDTA, 1 μM benzamidine, 10 mg/ml STI (soy trypsin inhibitor), 10 mg/ml bacitracin, 80 mU/ml aprotinin, 100 μM phenylmethanesulfonyl fluoride (PMSF) and phosSTOP (Roche, Ref.#04906845001). The samples were subsequently analyzed using Western Blot with specific antibodies. Briefly, the activation of p38 MAPK was analyzed by quantifying by densitometry the amount of p38 MAPK phosphorylated in the activation loop (TGY) by means of Western Blot with anti-phospho-T180-Y182-p38 antibodies (Cell Signaling, Ref.#9211) and by normalizing the values with those obtained for total p38 MAPK levels in each lysate. […]

[5] = system: peritoneal macrophages of WT and GRK2^+/− mice; test: LPS-induced TNF-α secretion in peritoneal macrophages of WT and GRK2+/− mice; format: cell-based; conditions: all doses, FIG. 13
Protocol: GRK2^+/− peritoneal macrophages were subjected to treatment with LPS and TNF secretion was measured in the presence of increasing doses of Compound 1 as described above. The inhibition observed in GRK2^+/− macrophages was greater than that obtained for WT cells for all doses of Compound 1. The data are means of points in duplicate referring in each case to the secretion obtained in WT macrophages in the presence of Compound 1 at the same dose.
TNF-α secretion inhibition in peritoneal macrophages of GRK2^+/− mice with Compound 1 was studied. As can be observed in FIG. 13, the greater effect of Compound 1 on GRK2^+/− macrophages may indicate that cells with a lower GRK2 level, as occurs in immune system cells from patients with inflammatory pathologies (Vroon A, Kavelaars A, Limmroth V, Lombardi M S, Goebel M U, Van Dam A M, Caron M G, Schedlowski M, Heijnen C J., J Immunol., 2005, 174(7), 4400-6) are more sensitive to such inhibition.

[6] = system: spinal cord astrocytes and neurons; test: Toxicity at the intrathecal injection site, Fluoro-Jade B staining, LysM-GRK2f/+ mice; format: in vivo; conditions: two days after the injection, FIG. 10
Protocol: Furthermore, the possible toxicity of Compound 1 at the injection site (intrathecal) was measured.

[7] = Paw thickness as measurement of ongoing inflammation; format: in vivo, mice; conditions: six days after treatment, FIG. 11E
[8] = Table 3, comparison with positional isomers
[9] = doses of 1 and 1.5 μg intrathecal

p38 MAPK (Homo sapiens, UniProt Q16539), sequence (Q16539 whole entry): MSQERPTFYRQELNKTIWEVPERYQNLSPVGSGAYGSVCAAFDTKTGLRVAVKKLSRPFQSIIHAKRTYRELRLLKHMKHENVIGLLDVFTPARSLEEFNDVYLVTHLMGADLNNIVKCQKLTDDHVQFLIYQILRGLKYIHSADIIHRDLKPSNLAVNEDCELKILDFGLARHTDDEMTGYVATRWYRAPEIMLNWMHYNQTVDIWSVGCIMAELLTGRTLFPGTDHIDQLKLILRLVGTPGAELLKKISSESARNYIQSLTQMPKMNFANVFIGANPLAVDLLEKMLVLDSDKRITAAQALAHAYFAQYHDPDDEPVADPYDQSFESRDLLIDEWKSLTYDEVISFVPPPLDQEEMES

## O=[N+]([O-])c1ccc(Nc2cc(F)ccc2F)c2nonc12 [Compound 3, (2,5-difluoro-phenyl)-(7-nitro-benzo[1,2,5]oxadiazol-4-yl)-amine]
[1]; Table 2, TNF-α ELISA
  IC50: 2.9 ± 0.41 µM

## COc1ccc(Cl)cc1C(=O)Nc1ccc(Cl)c2nonc12 [Compound 4, 5-chloro-N-(7-chloro-benzo[1,2,5]oxadiazol-4-yl)-2-methoxy-benzamide]
[1]; Table 2, TNF-α ELISA
  IC50: 3.2 µM

## Cc1ccc(Nc2ccc([N+](=O)[O-])c3nonc23)c(Cl)c1 [Compound 8, reference compound]
[1]; [8]
  IC50: 29 ± 1.41 µM

## Cc1ccc(C)c(Nc2cc(Cl)c3nonc3c2[N+](=O)[O-])c1 [Compound 6, (7-chloro-4-nitro-benzo[1,2,5]oxadiazol-5-yl)-(2,5-dimethyl-phenyl)-amine]
[1]; Table 2, TNF-α ELISA
  IC50: 3 µM

## O=[N+]([O-])c1ccc(Nc2cc(Cl)ccc2O)c2nonc12 [Compound 2, 4-chloro-2-(7-nitro-benzo[1,2,5]oxadiazol-4-ylamino)-phenol]
[1]; Table 2, TNF-α ELISA
  IC50: 3.2 ± 0.25 µM
[1]; human monocytes
  activity in TNF-α secretion inhibition compared with comparative Compounds 10-14: greater activity
THP-1 monocytes
  TD50 (μM): >100 μM (n = 2)

## Cc1ccc(Cl)cc1Nc1cc(Cl)c2nonc2c1[N+](=O)[O-] [Compound 5, (5-chloro-2-methyl-phenyl)-(7-chloro-4-nitro-benzo[1,2,5]oxadiazol-5-yl)-amine]
p38 MAPK [2]
  IC50: 10 µM
LysM-GRK2^f/+ mice; 4 μg intrathecal
  time after administering at which the decrease in hyperalgesia can be detected: 8 days
LysM-GRK2^f/+ mice; 4 μg intrathecal, FIG. 12
  hyperalgesia (paw withdrawal latency to heat): decrease in hyperalgesia
[1]; Table 2, TNF-α ELISA
  IC50: 0.3 µM
THP-1 monocytes
  TD50 (μM): >35 μM (n = 3)

## Cc1ccc(Cl)cc1Nc1ccc([N+](=O)[O-])c2nonc12 [Compound 1, (5-chloro-2-methyl-phenyl)-(7-nitro-benzo[1,2,5]oxadiazol-4-yl)-amine]
p38 MAPK [2]
  IC50: 6.5 µM
[3]; dose of 0.5 μg intrathecal, 6 days after carrageenan
  analgesic effect: temporary effect
[3]; [9]
  duration of analgesic effect: at least 5 days
  analgesic effect: long-term analgesic effect
LysM-GRK2^f/+ mice; dose of 0.3 μg intrathecal, FIG. 9B
  long-term analgesic effect: did not provide any long-term analgesic effect
LysM-GRK2^f/+ mice; doses of 0.5 and 1.5 μg intrathecal
  time the reduction of hyperalgesia was maintained after administering: ≥ 96 h
LysM-GRK2^f/+ mice; doses of 0.5 and 1.5 μg intrathecal, FIG. 9A
  hyperalgesia (paw withdrawal latency to heat): almost complete reduction of hyperalgesia
LysM-GRK2^f/+ mice; intrathecal, FIG. 9B
  lowest effective dose: 0.5 µg
TNF-α; after intraplantar carrageenan, two days after intrathecal treatment
  TNF-α levels in the spinal cord: significantly reduces
TNF-α; without carrageenan
  TNF-α secretion, compound alone: has no effect
p38 MAPK [4]
  activation of p38 MAPK (P-p38): decrease in the activation of p38 MAPK
  phosphorylation of MK2 and Hsp27 substrates: decrease in the phosphorylation
[5]
  inhibition of TNF secretion in GRK2+/− macrophages compared with WT cells: greater
[1]; Table 2, TNF-α ELISA
  IC50: 1.8 ± 0.006 µM
[1]; human monocytes
  activity in TNF-α secretion inhibition compared with comparative Compounds 10-14: greater activity
[6]
  neurotoxicity at the injection site (Fluoro-Jade B, dead or damaged cells): no signs of neurotoxicity were detected; also recorded: hardly any dead cells
[7]
  mouse paw thickness: increased
THP-1 monocytes
  TD50 (μM): ≈200 μM (n = 2)

## Cc1ccc(Nc2ccc([N+](=O)[O-])c3nonc23)cc1Cl [Compound 7, reference compound]
[1]; [8]
  IC50: 17 ± 1.41 µM

## O=[N+]([O-])c1ccc(Nc2cccc(F)c2F)c2nonc12 [Compound 9, reference compound]
[1]; Table 4, comparison with positional isomer
  IC50: 5.25 ± 0.35 µM
[1]; human monocytes, FIG. 7
  capacity for reducing TNF-α secretion compared with Compound 3: lower capacity
